The assay addresses T1, wild type PDK1 (Homo sapiens, UniProt O15530).
T1 sequence (O15530 1-556): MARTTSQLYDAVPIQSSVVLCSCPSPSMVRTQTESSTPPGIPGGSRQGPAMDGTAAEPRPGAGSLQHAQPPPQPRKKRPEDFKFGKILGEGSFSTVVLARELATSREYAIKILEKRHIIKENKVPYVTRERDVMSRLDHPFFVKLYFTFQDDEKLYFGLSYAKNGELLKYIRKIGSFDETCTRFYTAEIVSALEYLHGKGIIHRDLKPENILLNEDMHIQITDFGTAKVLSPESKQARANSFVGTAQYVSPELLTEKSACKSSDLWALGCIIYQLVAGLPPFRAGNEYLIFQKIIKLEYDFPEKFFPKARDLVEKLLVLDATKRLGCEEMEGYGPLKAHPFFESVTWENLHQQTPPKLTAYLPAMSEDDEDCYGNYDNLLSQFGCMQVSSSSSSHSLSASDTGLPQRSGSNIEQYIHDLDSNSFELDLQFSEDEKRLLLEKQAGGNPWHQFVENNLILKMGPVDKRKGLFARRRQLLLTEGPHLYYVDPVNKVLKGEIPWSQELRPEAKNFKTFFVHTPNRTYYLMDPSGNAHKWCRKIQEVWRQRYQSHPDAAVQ
As to the kind of experiment: Surface plasmon resonance (BiaCore) binding of hydrophobic motif peptides, wild type PDK1. Details: made in house; host or cells: human embryonic kidney 293 cells (pEBG2T vector). The note with it: BiaCore. How it is done: Binding and activation of wild type and mutant forms of PDK1 to a phosphopeptide derived from the hydrophobic motif of S6K1. The binding of the wild type (wt) PDK1 and indicated mutants to a phosphopeptide comprising the hydrophobic motif of S6K1 (S6K-pHM: […]*YVAPSV, where T* indicates phospho-threonine, SEQ ID NO:104) was analysed by surface plasmon resonance as described in the Materials and Methods.
A. The sensor chip SA was coated with 12RUs of the biotinylated S6K-pHM peptide and the binding was analysed following injection of 270 nM wild type PDK1, PDK1 [T148A] and PDK1 [K76A]. […] (data not shown).
B. As in A. except that binding was analysed over a range of PDK1 concentrations (2-2150 nM). The response level at the steady state binding is plotted versus the log of the PDK1 concentration. The estimated Kd was obtained by fitting the data to a sigmoid curve using Kaleidagraph software.
Binding was analysed in a BiaCore 3000 system (BiaCore AB, Stevenage, UK). Biotinylated S6K-pHM (Biotin-C12-[…](P)YVAPSV) (SEQ ID NO:104) or the non-phosphorylated form of this peptide S6K-HM was bound to an streptavidin-coated Sensor chip (SA) (12 response units, RU). 30 μl of wild type or the indicated mutant GST-PDK1 were injected at a flow rate of 30 μl/min, in buffer HBS-P (10 mM HEPES pH 7.4, 0.15M NaCl, 0.005% (by vol) polysorbate-20) supplemented with 1 mM DTT. Specific interactions between 56K-pHM and PDK1 proteins were obtained between the concentration range of 2-2150 nM PDK1. Steady state binding was determined at each concentration. Dissociation of PDK1 from the phospho-peptide was monitored over a 1 min period. Regeneration of the sensor chip surface was performed with 1{tilde over (0)} μl injections of 0.05% SDS. […] (RUmax=435). For all PDK1 construct tested, the off rates for S6Kp-HM were high in comparison to those of PIFtide binding with the time taken for 50% dissociation to occur for 56K-pHM is 30s compared to 1000s for PIFtide.

Molecules are shown by their SMILES. Where a SMILES comes first, the peptide text is derived from it. [ ]: non-standard residue; d: D form. pT = C[C@@H](OP(=O)(O)O)[C@H](N)C(=O)O

One compound from US7792665B2, “Method for designing a compound based on the three dimensional structure of phosphoinositide dependent protein kinase 1 (PDK1)” (Medical Research Council, priority 2002, dated 2010) can be followed below.

`CC(C)C[C@H](NC(=O)[C@H](Cc1ccccc1)NC(=O)[C@@H](NC(=O)[C@H](CCC(N)=O)NC(=O)[C@H](CC(N)=O)NC(=O)[C@H](C)NC(=O)[C@H](CO)NC(=O)[C@H](CCC(=O)O)NC(=O)[C@@H](N)CO)C(C)C)C(=O)NCC(=O)N[C@@H](Cc1ccccc1)C(=O)N[C@H](C(=O)N[C@@H](Cc1ccc(O)cc1)C(=O)N[C@H](C(=O)N[C@@H](C)C(=O)N1CCC[C@H]1C(=O)N[C@@H](CO)C(=O)N[C@H](C(=O)O)C(C)C)C(C)C)[C@@H](C)OP(=O)(O)O` [S6K-pHM] (H-SESANQVFLGF[pT]YVAPSV-OH; N-terminus and C-terminus assumed): the “time taken for 50% dissociation of PDK1 from peptide” value (all PDK1 constructs tested) is recorded as 30 s. The “lower affinity of wild type PDK1 for peptide in comparison to PIFtide” value (overall) is listed as “approximately 100 fold”.
